These results are taken from patent US20260335274A1, “COMPOSITIONS AND METHODS OF MINIMIZING LONG COVID” (priority 2022, published 2026).

Some results are limits rather than exact numbers.

Data set [1] deals with OC43 human coronavirus. The experiment in a line: Post-infection test, MRC-5 cells, TCID50. It is filed as cell-based, human coronavirus OC43 (MRC-5 human cells as host). The note with it: 10 min exposure; for inhibition at 50 µM: read-out: titer reduction, post-infection. Here is the method:
Then, 100 μl of either EC16 formulations or Remdesivir solutions of various concentrations were applied onto the cells for 10 min before being replaced by serum-free EMEM. The TCID50 values were determined after incubation for 4-7 days.

Data set [2] deals with OC43 human coronavirus. The experiment in a line: Pre-infection test, MRC-5 cells, TCID50. In kind it is cell-based, human coronavirus OC43 (MRC-5 human cells as host). Conditions: MRC5, 10 min; 50 μM EC16m, 10 min incubation before virus; read-out: reduction in viral infectivity, pre-infection. On the procedure:
EC16m nasal formulations were incubated with MRC-5 cells in 96 well plates for 10 min, and then removed. A series dilution of OC43 in serum-free EMEM was added to the cells and incubated for 1 h. The viral dilutions were then replaced with serum-free EMEM, and TCID50 infection rate was determined after 4-7 days of incubation.

The nature of data set [3]: Cytotoxicity of F18m in normal saline, MTT assay. In kind it is cell-based. The note with it: human, hnepc; EC16m in saline formulation, 60 min exposure; read-out: concentration not toxic to HNEpC. On the procedure:
The F18m glycerol stock was diluted 10× with normal saline to 1.4 mM of EC16m. A series dilution of this nanoformulation in Airway Growth Medium was applied to a monolayer of Human […] Primary Epithelial Cells (HNPEC, PromoCell) and incubated for 1 h before medium change and overnight incubation, followed by straining with an MTT assay.

Data set [4] has as its system OC43 human coronavirus. Put plainly: Direct contact (contact inhibition) antiviral test, TCID50. The note with it: Betacoronavirus 1, OC43, MRC5, in Homo sapiens, 0.5 h, read-out: reduction of OC43 infectivity.
For data set [5] the following is noted: in vivo, cited from earlier work.
For data set [6], the system named is SARS-CoV-2. Conditions: one-hour incubation; cited from earlier work.

Take `CCCCCCCCCCCCCCCC(=O)Oc1c(O)cc(C2Oc3cc(O)cc(O)c3CC2OC(=O)c2cc(O)c(O)c(O)c2)cc1O` (centres unmarked) [EC16m, Epigallocatechin-3-Gallate-mono-palmitate]: the “inhibition of viral replication, post-infection” value in data set [1] (12.5 μM EC16m) stood at 99%. In data set [1] (MRC5, 10 min, 12.5 μM EC16m, read-out: inhibition of viral replication, post-infection), the inhibition at 12.5 µM was > 99%. Besides, the inhibition at 50 µM was 99.8% in data set [1] (MRC5, 10 min, 50 μM); 98.5% in data set [2]; 99.9% in data set [4]. The MNTC at 1 h in data set [3] was < 280 µM.

Take `O=C(O[C@@H]1Cc2c(O)cc(O)cc2O[C@@H]1c1cc(O)c(O)c(O)c1)c1cc(O)c(O)c(O)c1` [EGCG, epigallocatechin-3-gallate]: the bioavailability entry in data set [5] is listed as “very low”. For the same compound, the Cmax in data set [5] (read-out: serum maximum concentration) is 570 nM. In data set [6], the concentration for an effect of 90% (EC90) was 69 µM.

Turning to `CCC(CC)COC(=O)[C@H](C)N[P@](=O)(OC[C@H]1O[C@@](C#N)(c2ccc3c(N)ncnn23)[C@H](O)[C@@H]1O)Oc1ccccc1` [remdesivir, reference compound], the inhibition at 50 µM in data set [1] (MRC5, 10 min, 50 μM) came to 99.8%. In data set [1] (MRC5, 10 min, 50 μM, n=4, read-out: log10 titer reduction, post-infection), the log reduction at 50 µM is 2.69 ± 0.24.

The EC90 is the concentration at which the effect reaches the 90% level.
